{"source": "paper PMC10828444", "about": "“Selective inhibition of overactive warmth-sensitive Ca^2+-permeable TRPV3 channels by antispasmodic agent flopropione for alleviation of skin inflammation” (The Journal of Biological Chemistry, 2023)", "format_in_all_cases": "cell-based", "key": {"[1]": {"molecular_target": "T1, hTRPM8 (Homo sapiens, UniProt Q7Z2W7)", "T1 construct": "expressed in transfected cells; host or cells: HEK293", "assay": "Whole-cell patch-clamp of TRPM8 currents elicited by menthol in HEK293 cells", "details": "flopropione 100 μM, menthol 500 μM", "experimental": "(§1) HEK293 cells were cultured in Dulbecco’s modified Eagle’s medium (DMEM, Gibco) containing 4.5 g/L D-glucose supplemented with 10% fetal bovine serum based at 37 °C with 5% CO2. For whole-cell patch-clamp recordings, cells were grown in glass coverslips for 24 h before transient transfections with 3000 ng cDNAs of hTRPV3 (gene accession number BC104866.1), hTRPV1 (accession number NM_080704.3), mTRPV2 (accession number NM_011706.2), hTRPV4 (accession number NM_021625.5), hTRPA1 (accession number NM_007332.3) and hTRPM8 (accession number NM_024080.5) into HEK293 cells grown in a 35-mm cell culture dish using Lipofectamine 2000 (Invitrogen). Cells were used 18 ∼ 24 h after transfection. All WT or mutant hTRPV3 plasmids were validated by DNA sequencing.\n(§2) Whole-cell patch clamp recordings of wild-type and mutants were carried out at room temperature using the HEKA EPC10 amplifier powered by PatchMaster software (HEKA) or MultiClamp 700B amplifier driven by Clampex 11.0.3 software. The borosilicate glass pipettes were pulled and fire-polished to 3∼6 MΩ using a DMZ universal electrode puller (Zeitz-Instruments, GmbH). Pipette solution and bath solution both contained (in mM): 130 NaCl, three HEPES, and 0.2 EDTA (pH = 7.4). Cell membrane potential was held at 0 mV, currents were recorded at a voltage ramp from −100 to +100 mV for 500-ms and analyzed at ±80 mV."}, "[2]": {"molecular_target": "T2, hTRPV3 R509A mutant (Homo sapiens, UniProt Q8NET8, R509A)", "T2 construct": "expressed in transfected cells; host or cells: HEK293", "T2 sequence (Q8NET8 1-790 R509A)": "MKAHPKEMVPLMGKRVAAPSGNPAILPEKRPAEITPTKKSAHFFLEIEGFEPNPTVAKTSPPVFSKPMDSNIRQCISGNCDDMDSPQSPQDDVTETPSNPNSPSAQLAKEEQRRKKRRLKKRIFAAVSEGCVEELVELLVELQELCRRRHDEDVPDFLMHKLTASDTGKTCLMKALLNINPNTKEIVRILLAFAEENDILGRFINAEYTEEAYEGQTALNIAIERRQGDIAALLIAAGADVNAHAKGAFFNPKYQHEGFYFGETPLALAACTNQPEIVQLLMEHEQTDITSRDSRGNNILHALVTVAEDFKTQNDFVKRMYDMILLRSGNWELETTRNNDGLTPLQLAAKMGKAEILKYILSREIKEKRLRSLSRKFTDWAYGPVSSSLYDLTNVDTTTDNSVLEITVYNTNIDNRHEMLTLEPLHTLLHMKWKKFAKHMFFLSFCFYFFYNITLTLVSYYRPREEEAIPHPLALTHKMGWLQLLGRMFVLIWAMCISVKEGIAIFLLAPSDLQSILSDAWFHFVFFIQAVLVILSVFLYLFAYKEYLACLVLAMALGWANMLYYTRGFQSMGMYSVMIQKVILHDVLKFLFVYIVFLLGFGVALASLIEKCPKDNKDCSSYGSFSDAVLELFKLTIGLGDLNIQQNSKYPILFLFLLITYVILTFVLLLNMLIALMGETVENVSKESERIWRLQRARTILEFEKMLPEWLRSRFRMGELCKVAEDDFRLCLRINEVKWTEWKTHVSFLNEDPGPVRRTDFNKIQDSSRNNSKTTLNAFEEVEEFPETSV", "assay": "Whole-cell recordings of TRPV3 R509A mutant", "details": "100 μM flopropione, 2-APB", "experimental": "as §1, §2"}, "[3]": {"molecular_target": "T3, mTRPV2 (Mus musculus, UniProt Q9WTR1)", "T3 construct": "expressed in transfected cells; host or cells: HEK293", "T3 sequence (Q9WTR1 1-756)": "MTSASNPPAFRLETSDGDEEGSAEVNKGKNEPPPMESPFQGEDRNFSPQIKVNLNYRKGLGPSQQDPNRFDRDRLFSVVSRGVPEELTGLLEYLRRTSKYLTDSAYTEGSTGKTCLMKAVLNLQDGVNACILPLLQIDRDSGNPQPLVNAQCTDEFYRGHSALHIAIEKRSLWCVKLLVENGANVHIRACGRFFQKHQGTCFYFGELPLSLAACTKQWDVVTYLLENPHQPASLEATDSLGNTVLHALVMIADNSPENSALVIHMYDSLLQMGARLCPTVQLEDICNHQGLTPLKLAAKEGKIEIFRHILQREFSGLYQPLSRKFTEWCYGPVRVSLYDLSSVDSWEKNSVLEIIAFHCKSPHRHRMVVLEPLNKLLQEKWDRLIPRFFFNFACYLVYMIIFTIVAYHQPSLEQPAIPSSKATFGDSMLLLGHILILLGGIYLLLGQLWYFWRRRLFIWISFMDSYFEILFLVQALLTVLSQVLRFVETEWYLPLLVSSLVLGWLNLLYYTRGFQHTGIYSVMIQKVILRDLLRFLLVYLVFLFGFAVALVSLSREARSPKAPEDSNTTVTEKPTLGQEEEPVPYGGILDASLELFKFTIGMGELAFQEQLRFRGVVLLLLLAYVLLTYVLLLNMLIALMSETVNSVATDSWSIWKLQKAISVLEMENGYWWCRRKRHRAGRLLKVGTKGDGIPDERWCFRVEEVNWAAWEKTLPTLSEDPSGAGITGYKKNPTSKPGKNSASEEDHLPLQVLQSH", "assay": "Whole-cell patch-clamp of TRPV2 currents activated by 2-APB in HEK293 cells", "details": "flopropione 100 μM, 2-APB 2 mM", "experimental": "as §1, §2"}}, "data": [{"compound": "CCC(=O)c1c(O)cc(O)cc1O", "note": "[flopropione]", "values": [{"measurement": "effect on TRPM8 currents", "setting": "[1]", "result": "no effect"}, {"measurement": "sensitivity of R509A mutant to flopropione inhibition", "setting": "[2]", "result": "maintained the sensitivity to flopropione inhibition"}, {"measurement": "inhibition at 100 µM", "setting": "[3]", "result": "~60", "unit": "%"}]}]}
